In patent US20150352108A1, “AMINO-PYRIMIDINE COMPOUNDS AS INHIBITORS OF TBK1 AND/OR IKK EPSILON” (Alzheimer's Institute of America, priority 2009, published 2015):

What was measured:
IKKε = target: T1, IKKε (Homo sapiens, UniProt Q14164); assay: In-vitro IKKε kinase assay ([γ33]ATP filter-plate); type: biochemical; conditions: text bins; read-out: IC50 for inhibition of the kinase activity of IKKε
T1 construct: His-tag; made in house; host or cells: Sf9 insect cells
T1 sequence (Q14164 1-716): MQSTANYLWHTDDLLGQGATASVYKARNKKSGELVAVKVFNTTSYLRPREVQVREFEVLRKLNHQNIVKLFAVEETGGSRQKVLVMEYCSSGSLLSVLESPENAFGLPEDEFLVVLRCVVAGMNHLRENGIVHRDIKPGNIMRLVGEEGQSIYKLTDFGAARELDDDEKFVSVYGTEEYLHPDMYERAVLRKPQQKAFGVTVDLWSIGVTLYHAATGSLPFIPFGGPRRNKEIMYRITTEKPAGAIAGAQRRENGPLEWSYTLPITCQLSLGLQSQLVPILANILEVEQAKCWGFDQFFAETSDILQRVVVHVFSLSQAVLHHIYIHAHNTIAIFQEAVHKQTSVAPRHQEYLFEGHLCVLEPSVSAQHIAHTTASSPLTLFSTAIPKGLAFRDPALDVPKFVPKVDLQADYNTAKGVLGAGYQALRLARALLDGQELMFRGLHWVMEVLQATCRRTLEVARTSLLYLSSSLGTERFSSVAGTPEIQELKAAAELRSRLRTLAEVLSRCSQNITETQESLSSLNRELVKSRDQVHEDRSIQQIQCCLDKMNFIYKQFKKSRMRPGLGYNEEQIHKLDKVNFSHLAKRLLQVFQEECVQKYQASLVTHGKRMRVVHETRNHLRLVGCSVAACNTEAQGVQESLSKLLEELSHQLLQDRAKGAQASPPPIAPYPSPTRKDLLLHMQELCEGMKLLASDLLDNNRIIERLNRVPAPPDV
Summary of the method: (§1)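 Phosphorylation of casein or myelin basic protein was counted by P-81 filter capture after 30-45 min reactions stopped with phosphoric acid, with counts normalized to DMSO after background subtraction. ATP was twice Km: 60 μM for TBK1 and 32 μM for IKKε, plus [γ33]ATP. Sf9-expressed His-tag enzymes were used at normal/sensitized levels of 0.1/0.02 μg/ml (TBK1) and 0.1/0.015 μg/ml (IKKε).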

TBK1 = target: T2, TBK1 (Homo sapiens, UniProt Q9UHD2); assay: In-vitro TBK1 kinase assay ([γ33]ATP filter-plate); type: biochemical; conditions: text bins; read-out: IC50 for inhibition of the kinase activity of TBK1
T2 construct: His-tag; made in house; host or cells: Sf9 insect cells
T2 sequence (Q9UHD2 1-729): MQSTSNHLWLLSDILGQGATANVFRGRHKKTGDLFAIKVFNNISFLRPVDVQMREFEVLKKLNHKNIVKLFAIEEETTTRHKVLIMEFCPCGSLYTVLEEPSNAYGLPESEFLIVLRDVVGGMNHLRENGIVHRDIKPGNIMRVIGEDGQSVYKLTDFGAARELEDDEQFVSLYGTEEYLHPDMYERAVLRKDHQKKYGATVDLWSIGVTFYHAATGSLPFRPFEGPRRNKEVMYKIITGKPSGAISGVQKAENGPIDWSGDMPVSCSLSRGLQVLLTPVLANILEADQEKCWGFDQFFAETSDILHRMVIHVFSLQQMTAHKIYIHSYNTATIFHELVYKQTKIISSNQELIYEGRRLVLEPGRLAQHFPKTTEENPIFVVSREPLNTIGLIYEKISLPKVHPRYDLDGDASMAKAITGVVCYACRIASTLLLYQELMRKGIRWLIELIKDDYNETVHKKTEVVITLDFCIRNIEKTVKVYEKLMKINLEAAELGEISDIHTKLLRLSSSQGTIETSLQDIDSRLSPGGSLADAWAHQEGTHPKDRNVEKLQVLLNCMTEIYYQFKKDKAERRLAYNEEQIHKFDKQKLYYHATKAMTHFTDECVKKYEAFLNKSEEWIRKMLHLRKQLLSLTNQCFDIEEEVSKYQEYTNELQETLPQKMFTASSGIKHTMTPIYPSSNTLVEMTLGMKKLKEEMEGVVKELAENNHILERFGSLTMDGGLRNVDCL
Summary of the method: as §1

IFN-β1 mRNA, SLE PBMCs = assay: Agonist induced IFN-β1 mRNA in PBMCs from SLE patients (qRT-PCR); type: cell-based, human; conditions: LMW poly(I:C), serial dilutions
Excerpt: To determine if inhibition of IKKε and/or TBK1 modulates nucleic acid agonist induced gene expression, high molecular weight poly(I:C) (MDA5 agonist) and low weight poly(I:C) (RIG-I agonist) were electroporated into human peripheral blood mononuclear cells (PBMCs) obtained from normal donors, or low molecular weight Poly(I:C) was electroporated into PBMCs from donors that have Systemic Lupus Erythematosus (SLE). Induction of IFN-α2, IFN-β, and BLyS mRNA production was monitored by qRT-PCR.
Human PBMCs were collected from healthy donors using routine laboratory procedures. PBMCs from SLE patients were purchased from Astarte Biologics (Redmond, Wash.). The PBMCs were electroporated using Nucleofector® Kit V (Lonza, Walkersville, Md.) with 0.4 ug/mL of high molecular weight poly (I:C) (InvivoGen, San Diego, Calif.) or 0.4 ug/mL low molecular weight poly (I:C) (InvivoGen, San Diego, Calif.) and seeded into wells containing serial dilutions of Example Compound 5 (0.1% final DMSO concentration). […] RNA was quantitated using Quant-iT™ RiboGreen® RNA Assay Kit (Invitrogen, Carlsbad, Calif.). Reverse transcription and real-time PCR were performed using the QuantiTect Probe RT-PCR Kit (Qiagen, Germantown, Md.) and the 7300 Real-Time PCR System (Applied Biosytems, Foster City, Calif.). […]

IC50 (IKKε): < 5 nM
IC50 (TBK1): < 10 nM
Compound: N#Cc1cc(-c2ccnc(Nc3ccc(N4CCOCC4)cc3)n2)ccc1OC1CCOCC1 [Example 5, 5-(2-{[4-(Morpholin-4-yl)phenyl]amino}pyrimidin-4-yl)-2-(tetrahydro-2H-pyran-4-yloxy)benzaonitrile]
induction of IFN-β1 mRNA (IFN-β1 mRNA, SLE PBMCs): potently inhibited
